{
  "source": "paper PMC5775429",
  "about": "“LY2087101 and dFBr share transmembrane binding sites in the (α4)3(β2)2 Nicotinic Acetylcholine Receptor” (Scientific Reports, 2018)",
  "key": {"(α4)3(β2)2 nAChR": {"biological_target": "T1, (α4)3(β2)2 nAChR (Homo sapiens, UniProt P17787+P43681)", "T1 construct": "expressed in transfected cells; host or cells: Xenopus laevis oocytes injected with cRNA", "T1 sequence (P43681 29-627 limits assumed)": "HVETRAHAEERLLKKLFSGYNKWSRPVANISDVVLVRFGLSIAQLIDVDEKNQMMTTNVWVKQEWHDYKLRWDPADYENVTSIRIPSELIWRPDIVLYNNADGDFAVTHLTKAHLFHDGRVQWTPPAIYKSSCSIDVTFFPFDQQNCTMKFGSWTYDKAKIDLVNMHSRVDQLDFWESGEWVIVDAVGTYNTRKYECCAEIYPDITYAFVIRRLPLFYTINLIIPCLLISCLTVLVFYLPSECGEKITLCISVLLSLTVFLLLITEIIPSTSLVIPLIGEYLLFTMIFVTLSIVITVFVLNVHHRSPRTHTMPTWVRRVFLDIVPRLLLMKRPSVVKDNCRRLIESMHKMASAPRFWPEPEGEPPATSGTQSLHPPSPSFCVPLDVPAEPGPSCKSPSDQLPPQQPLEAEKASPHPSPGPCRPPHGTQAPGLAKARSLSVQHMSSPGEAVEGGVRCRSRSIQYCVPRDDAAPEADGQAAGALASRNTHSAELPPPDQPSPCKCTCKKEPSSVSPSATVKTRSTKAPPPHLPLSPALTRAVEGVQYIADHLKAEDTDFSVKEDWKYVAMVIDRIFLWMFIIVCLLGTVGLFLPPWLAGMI", "T1 sequence (P17787 26-502)": "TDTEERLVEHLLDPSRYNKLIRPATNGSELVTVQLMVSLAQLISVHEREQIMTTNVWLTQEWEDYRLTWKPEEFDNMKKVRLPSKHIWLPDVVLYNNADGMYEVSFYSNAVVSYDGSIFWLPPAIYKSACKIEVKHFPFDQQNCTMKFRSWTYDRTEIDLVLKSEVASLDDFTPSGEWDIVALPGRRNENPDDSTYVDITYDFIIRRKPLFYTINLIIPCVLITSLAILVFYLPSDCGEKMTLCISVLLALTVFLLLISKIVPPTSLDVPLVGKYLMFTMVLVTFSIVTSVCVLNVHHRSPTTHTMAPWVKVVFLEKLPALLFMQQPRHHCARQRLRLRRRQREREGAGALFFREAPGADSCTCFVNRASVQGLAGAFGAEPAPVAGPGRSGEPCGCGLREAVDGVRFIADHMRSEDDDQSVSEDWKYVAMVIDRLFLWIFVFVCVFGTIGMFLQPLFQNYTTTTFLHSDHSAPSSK", "conditions": "cited from earlier work"}, "animal model [1]": {"system": "animal model", "set-up": "method as in PMID 23712602, PMID 28446611, PMID 28809075, PMID 28105008", "conditions": "cited from earlier work"}, "(α4Q150T)3(β2)2 nAChR [2]": {"biological_target": "T2, (α4Q150T)3(β2)2 nAChR (Homo sapiens, UniProt P43681, Q150T)", "T2 sequence (P43681 29-627 Q150T limits assumed)": "as the sequence (P43681 29-627 limits assumed) above, with Q122T counted along it", "T2 sequence (P17787 26-502 partner)": "as the sequence (P17787 26-502) above", "set-up": "method as in PMID 28446611", "conditions": "10 µM ACh + 1 µM dFBr vs 10 µM ACh alone; data reported previously ref 29; cited from earlier work"}, "(α4R148E)3(β2)2 nAChR [3]": {"biological_target": "T3, (α4R148E)3(β2)2 nAChR (Homo sapiens, UniProt P43681, R148E)", "T3 sequence (P43681 29-627 R148E limits assumed)": "as the sequence (P43681 29-627 limits assumed) above, with R120E counted along it", "T3 sequence (P17787 26-502 partner)": "as the sequence (P17787 26-502) above", "set-up": "method as in PMID 28446611", "conditions": "10 µM ACh + 1 µM dFBr vs 10 µM ACh alone; data reported previously ref 29; cited from earlier work"}, "animal model [4]": {"system": "animal model", "set-up": "method as in PMID 23712602, PMID 28446611, PMID 28809075, PMID 28105008", "conditions": "cited from earlier work", "remark": "listed apart in the source"}, "animal model [5]": {"system": "animal model", "set-up": "method as in PMID 23712602, PMID 28446611, PMID 28809075, PMID 28105008", "conditions": "cited from earlier work", "remark": "listed apart in the source"}, "(α4G67E)3(β2)2 nAChR [6]": {"biological_target": "T4, (α4G67E)3(β2)2 nAChR (Homo sapiens, UniProt P43681, G67E)", "T4 sequence (P43681 29-627 G67E limits assumed)": "as the sequence (P43681 29-627 limits assumed) above, with G39E counted along it", "T4 sequence (P17787 26-502 partner)": "as the sequence (P17787 26-502) above", "set-up": "method as in PMID 28446611", "conditions": "10 µM ACh + 1 µM dFBr vs 10 µM ACh alone; data reported previously ref 29; cited from earlier work"}, "(α4R65H)3(β2)2 nAChR [7]": {"biological_target": "T5, (α4R65H)3(β2)2 nAChR (Homo sapiens, UniProt P43681, R65H)", "T5 sequence (P43681 29-627 R65H limits assumed)": "as the sequence (P43681 29-627 limits assumed) above, with R37H counted along it", "T5 sequence (P17787 26-502 partner)": "as the sequence (P17787 26-502) above", "set-up": "method as in PMID 28446611", "conditions": "10 µM ACh + 1 µM dFBr vs 10 µM ACh alone; data reported previously ref 29; cited from earlier work"}, "(α4H142L)3(β2)2 nAChR": {"biological_target": "(α4H142L)3(β2)2 nAChR (Homo sapiens, UniProt P43681, H142L)", "sequence (P43681 29-627 H142L limits assumed)": "as the sequence (P43681 29-627 limits assumed) above, with H114L counted along it", "sequence (P17787 26-502 partner)": "as the sequence (P17787 26-502) above", "experiment": "Two-electrode voltage-clamp of ACh-induced currents in Xenopus oocytes", "assay_type": "cell-based", "conditions": "10 µM ACh + 1 µM LY2087101 vs 10 µM ACh alone", "description": "(§1) For amino acid substitutions within the α4 nAChR subunit, point mutations were introduced into pSP64ployA plasmid with cDNA encoding for human α4 nAChR subunit with mutagenic primer pairs using the Quick Change II Site-Directed Mutagenesis Kit (Agilent Technologies) then confirmed by DNA sequencing (GENEWIZ, LLC, South Plainfield, NJ). cRNA transcripts suitable for oocyte expression were prepared in vitro from linearized plasmids [α3 (BamH1), α4 (AseI), β2 (PvuII), β4 (XhoI)] using mMESSAGE mMACHINE high yield capped RNA transcription kits (Ambion) and purified on NucAway Spin column (Invitrogen). cRNA concentration was determined by spectroscopy (Concentration (ug/ul) = Abs260 * 40), aliquoted and stored at −80 °C until used.\n(§2) Ovarian lobules were surgically harvested from oocytes-positive female Xenopus laevis (NASCO, Fort Atkinson, WI) according to an animal use protocol approved by the Texas A&M Health Sciences Center Institutional Animals Care and Use Committee. The Texas A&M Health Sciences Center Research Facility is registered as an animal research facility with the United States Department of Agriculture and is fully accredited by the American Association for Accreditation of Laboratory Animal Care (AAALAC). For oocytes defolliculation, ovarian lobes were treated with 3 mg/ml collagenase type 2 (Worthington Biomedical, Lakewood, NJ) in Ca + 2-free buffer (85 mM NaCl, 2.5 mM KCl, 1 mM MgCl2, 5 mM HEPES, pH 7.6). Collagenase treatment was allowed to proceed for 3 hours at room temperature with gentle shaking then oocytes were washed several times with buffer to remove collagenase then with ND96-gentamicine buffer. Healthy Stage V and VI oocytes were visually selected and maintained at 18 °C in modified ND96-gentamicine buffer (96 mM NaCl, 2 mM KCl, 1.8 mM CaCl2, 1 mM MgCl2, 5 mM HEPES, 50 µg/ml gentamicin, pH 7.6). Oocytes were injected with 50–100 ng of the desired nAChR subunits cRNA mix at ratios of 8α:1β or 1α:8β to express nAChRs with subunit stoichiometries of 3α:2β (low agonist sensitivity) or 2α:3β (high agonist sensitivity), respectively.\n(§3) Two-electrode voltage clamp recording of ACh-induced responses of Xenopus oocytes were performed 24–72 h following injection of nAChR subunit cRNA mix to ensure adequate nAChRs expression. Xenopus oocytes were placed in a custom-made recording chamber that is connected to eight channels automated perfusion system (Warner Instruments) and voltage-clamped at −50 mV using Oocyte Clamp OC-725B (Warner Instruments). Oocytes were continuously perfused with recording buffer (100 mM NaCl, 2 mM KCl, 1 mM CaCl2, 0.8 mM MgCl2, 1 mM EGTA, 10 mM Hepes, pH 7.5) except during periods of drug applications. […] Currents were digitized using Digidata 1550 A (Axon Instruments) and peak currents were quantified using pCLAMP 10 (Axon Instruments) then normalized and analyzed using Excels 2010 (Microsoft corporation) and SigmaPlot 11.0 (Systat Software)."}, "(α4L63I)3(β2)2 nAChR": {"biological_target": "(α4L63I)3(β2)2 nAChR (Homo sapiens, UniProt P43681, L63I)", "sequence (P43681 29-627 L63I limits assumed)": "as the sequence (P43681 29-627 limits assumed) above, with L35I counted along it", "sequence (P17787 26-502 partner)": "as the sequence (P17787 26-502) above", "experiment": "Two-electrode voltage-clamp of ACh-induced currents in Xenopus oocytes", "assay_type": "cell-based", "conditions": "10 µM ACh + 1 µM LY2087101 vs 10 µM ACh alone", "description": "as §1, §2, §3"}, "(α4E92I)3(β2)2 nAChR": {"biological_target": "(α4E92I)3(β2)2 nAChR (Homo sapiens, UniProt P43681, E92I)", "sequence (P43681 29-627 E92I limits assumed)": "as the sequence (P43681 29-627 limits assumed) above, with E64I counted along it", "sequence (P17787 26-502 partner)": "as the sequence (P17787 26-502) above", "experiment": "Two-electrode voltage-clamp of ACh-induced currents in Xenopus oocytes", "assay_type": "cell-based", "conditions": "10 µM ACh + 1 µM LY2087101 vs 10 µM ACh alone", "description": "as §1, §2, §3"}, "(α4T152I)3(β2)2 nAChR": {"biological_target": "(α4T152I)3(β2)2 nAChR (Homo sapiens, UniProt P43681, T152I)", "sequence (P43681 29-627 T152I limits assumed)": "as the sequence (P43681 29-627 limits assumed) above, with T124I counted along it", "sequence (P17787 26-502 partner)": "as the sequence (P17787 26-502) above", "experiment": "Two-electrode voltage-clamp of ACh-induced currents in Xenopus oocytes", "assay_type": "cell-based", "conditions": "10 µM ACh + 1 µM LY2087101 vs 10 µM ACh alone", "description": "as §1, §2, §3"}, "(α4R148E)3(β2)2 nAChR [8]": {"biological_target": "T3, (α4R148E)3(β2)2 nAChR", "experiment": "Two-electrode voltage-clamp of ACh-induced currents in Xenopus oocytes", "assay_type": "cell-based", "conditions": "10 µM ACh + 1 µM LY2087101 vs 10 µM ACh alone", "description": "as §1, §2, §3"}, "(α4Q150T)3(β2)2 nAChR [9]": {"biological_target": "T2, (α4Q150T)3(β2)2 nAChR", "experiment": "Two-electrode voltage-clamp of ACh-induced currents in Xenopus oocytes", "assay_type": "cell-based", "conditions": "10 µM ACh + 1 µM LY2087101 vs 10 µM ACh alone", "description": "as §1, §2, §3"}, "(α4H94N)3(β2)2 nAChR": {"biological_target": "(α4H94N)3(β2)2 nAChR (Homo sapiens, UniProt P43681, H94N)", "sequence (P43681 29-627 H94N limits assumed)": "as the sequence (P43681 29-627 limits assumed) above, with H66N counted along it", "sequence (P17787 26-502 partner)": "as the sequence (P17787 26-502) above", "experiment": "Two-electrode voltage-clamp of ACh-induced currents in Xenopus oocytes", "assay_type": "cell-based", "conditions": "10 µM ACh + 1 µM LY2087101 vs 10 µM ACh alone", "description": "as §1, §2, §3"}, "(α4G67E)3(β2)2 nAChR [10]": {"biological_target": "T4, (α4G67E)3(β2)2 nAChR", "experiment": "Two-electrode voltage-clamp of ACh-induced currents in Xenopus oocytes", "assay_type": "cell-based", "conditions": "10 µM ACh + 1 µM LY2087101 vs 10 µM ACh alone", "description": "as §1, §2, §3"}, "(α4R65H)3(β2)2 nAChR [11]": {"biological_target": "T5, (α4R65H)3(β2)2 nAChR", "experiment": "Two-electrode voltage-clamp of ACh-induced currents in Xenopus oocytes", "assay_type": "cell-based", "conditions": "10 µM ACh + 1 µM LY2087101 vs 10 µM ACh alone", "description": "as §1, §2, §3"}},
  "note": "Like-named read-outs stand apart in the source and are kept apart here. Marks after values point to notes of the source that are not given here.",
  "data": [
    {"smiles": "C=CC(C)(C)c1[nH]c2cc(Br)ccc2c1CCNC", "note": "[dFBr]", "values": [
      {"measurement": "increase in ACh efficacy (Imax) by dFBr", "setting": "(α4)3(β2)2 nAChR; ACh concentration-response curve", "value": "~ 4 fold"},
      {"measurement": "dFBr maximal potentiation", "setting": "(α4)3(β2)2 nAChR", "value": 400, "unit": "%"},
      {"measurement": "antiallodynic response of nicotine", "setting": "animal model [1]", "value": "potentiate the antiallodynic response of nicotine"},
      {"measurement": "R, potentiation ratio (PR)", "setting": "(α4Q150T)3(β2)2 nAChR [2]", "value": "3.9 ± 0.1^a"},
      {"measurement": "R, potentiation ratio (PR)", "setting": "(α4R148E)3(β2)2 nAChR [3]", "value": "10.3 ± 2.4^a"},
      {"measurement": "nicotine self-administration", "setting": "animal model [4]", "value": "reduce nicotine self-administration"},
      {"measurement": "nicotine withdrawal signs", "setting": "animal model [5]", "value": "reverse nicotine withdrawal signs"},
      {"measurement": "R, potentiation ratio (PR)", "setting": "(α4G67E)3(β2)2 nAChR [6]", "value": "4.1 ± 0.2^a"},
      {"measurement": "R, potentiation ratio (PR)", "setting": "(α4R65H)3(β2)2 nAChR [7]", "value": "5.3 ± 1.8^a"}
    ]},
    {"smiles": "Cc1nc(Nc2ccc(F)cc2)sc1C(=O)c1ccsc1", "note": "[LY2087101, [2-[(4-Fluorophenyl)amino]-4-methyl-5-thiazolyl]-3-thienylmethanone]", "values": [
      {"measurement": "R, potentiation ratio (PR)", "setting": "(α4H142L)3(β2)2 nAChR", "value": "8.7 ± 0.5"},
      {"measurement": "R, potentiation ratio (PR)", "setting": "(α4L63I)3(β2)2 nAChR", "value": "4.3 ± 0.4"},
      {"measurement": "R, potentiation ratio (PR)", "setting": "(α4E92I)3(β2)2 nAChR", "value": "10.9 ± 2.6"},
      {"measurement": "R, potentiation ratio (PR)", "setting": "(α4T152I)3(β2)2 nAChR", "value": "4.3 ± 1.3"},
      {"measurement": "R, potentiation ratio (PR)", "setting": "(α4R148E)3(β2)2 nAChR [8]", "value": "11.1 ± 1.2"},
      {"measurement": "R, potentiation ratio (PR)", "setting": "(α4Q150T)3(β2)2 nAChR [9]", "value": "4.3 ± 0.2"},
      {"measurement": "R, potentiation ratio (PR)", "setting": "(α4H94N)3(β2)2 nAChR", "value": "5.2 ± 1.0"},
      {"measurement": "R, potentiation ratio (PR)", "setting": "(α4G67E)3(β2)2 nAChR [10]", "value": "5.2 ± 0.7"},
      {"measurement": "R, potentiation ratio (PR)", "setting": "(α4R65H)3(β2)2 nAChR [11]", "value": "7.4 ± 1.3"}
    ]}
  ]
}
